Holding throughout (experiment): residual activity, pNA release at […] nm
Assay type in all cases: biochemical
Conditions in all cases: read-out: IC50 against E-64

Assay [1] concerns the target Ervatamin-C (Erv-C) (Tabernaemontana divaricata, UniProt A8DS38, A200Y/S165T).
In assay [2] the target is Ervatamin-C (Erv-C) (Tabernaemontana divaricata, UniProt A8DS38, A200Y).
The target in assay [3] is Ervatamin-C (Erv-C) (Tabernaemontana divaricata, UniProt A8DS38).
Sequence of Ervatamin-C (Erv-C) (Tabernaemontana divaricata, UniProt A8DS38) (A8DS38 134-341): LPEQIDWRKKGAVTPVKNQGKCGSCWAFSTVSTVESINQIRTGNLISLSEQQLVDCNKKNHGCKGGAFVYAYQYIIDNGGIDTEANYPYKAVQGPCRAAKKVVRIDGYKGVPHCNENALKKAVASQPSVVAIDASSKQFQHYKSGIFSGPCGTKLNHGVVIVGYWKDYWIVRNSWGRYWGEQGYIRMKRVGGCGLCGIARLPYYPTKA

Sequence of Ervatamin-C (Erv-C) (Tabernaemontana divaricata, UniProt A8DS38, A200Y/S165T) (A8DS38 134-341 S165T/A200Y): as the sequence (A8DS38 134-341) above, with S32T, A67Y counted along it
Sequence of Ervatamin-C (Erv-C) (Tabernaemontana divaricata, UniProt A8DS38, A200Y) (A8DS38 134-341 A200Y): as the sequence (A8DS38 134-341) above, with A67Y counted along it

Turning to `CC(C)C[C@H](NC(=O)[C@H]1O[C@@H]1C(=O)O)C(=O)NCCCCN=C(N)N` [E-64], the IC50 is 171 nM on Ervatamin-C (Erv-C) [1], 251 nM on Ervatamin-C (Erv-C) [2] and 349 nM on Ervatamin-C (Erv-C) [3].

By IC50 is commonly meant the point on the concentration scale where inhibition reaches its midpoint.

Source of the values: publication PMC3643963, “Enhancement of Proteolytic Activity of a Thermostable Papain-Like Protease by Structure-Based Rational Design” (PLoS ONE, 2013).
